Source: publication PMC7612957 (Science (New York, N.Y.), 2020)
“Also recorded” adds a separate entry of the source. Like-named read-outs stand apart in the source and are kept apart here. Where no end group is shown, it is not given here.

Columns and labels:
NRP1 b1 domain [1] = target: T1, NRP1 b1 domain (Homo sapiens, UniProt O14786); assay: ITC binding to NRP1 b1 domain
NRP1 b1 domain [2] = target: T1, NRP1 b1 domain; assay: ITC competition: EG00229 versus S1 CendR peptide for NRP1 b1; format: binding; details: pre-incubation with EG00229, N=3
NRP1 = details: selective NRP1 antagonist, binds the b1 CendR binding pocket; ref [14]; cited from earlier work
SARS-CoV-2 = format: cell-based
NRP1 b1 domain [3] = target: T2, NRP1 b1 domain; assay: ITC
T2 chain: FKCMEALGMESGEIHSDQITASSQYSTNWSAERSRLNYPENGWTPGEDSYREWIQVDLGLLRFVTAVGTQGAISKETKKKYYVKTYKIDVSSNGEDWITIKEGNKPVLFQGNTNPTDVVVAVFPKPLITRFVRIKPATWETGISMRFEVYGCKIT

NRP1 b1 domain [4] = target: T2, NRP1 b1 domain; assay: ITC

With NC(N)=NCCC[C@H](NC(=O)c1sccc1NS(=O)(=O)c1cccc2nsnc12)C(=O)O [EG00229] the Kd (NRP1 b1 domain [1]; read-out: Kd for NRP1 b1 domain, EG00229, pH 5.5, N=3, fit with 1-to-1 ratio binding) was 11 µM, the Kd (NRP1 b1 domain [1]; read-out: Kd for NRP1 b1 domain, EG00229, pH 7.5, N=3, fit with 1-to-1 ratio binding) was 5.1 µM and the “inhibition of S1 CendR peptide binding to b1” value (NRP1 b1 domain [2]) was “blocks S1 CendR peptide binding; also recorded: inhibited the direct binding between b1 and the S1 CendR peptide”. For the same molecule, the “inhibition of VEGF-A binding” value (NRP1) was “inhibits VEGF-A binding” and the “reduction of SARS-CoV-2 infection by EG00229” value (SARS-CoV-2) was “reduced the efficiency of SARS-CoV-2 infection”.

For NSPRRAR [S1 CendR peptide], the Kd (NRP1 b1 domain [1]; affinity for NRP1 b1 domain, pH 7.5, N=3, fit with 1-to-1 ratio binding) was 20.3 µM.

B1: S1 CendR peptide (679NSPRRAR685) (peptide)
peptide: NSPRRAR
With B1 the Kd (NRP1 b1 domain [3]) was 13 µM and the Kd (NRP1 b1 domain [4]) was 20.3 µM.
